Measurements: patent US20210070748A1, “INHIBITORS OF BRUTONS TYROSINE KINASE” (Pharmacyclics LLC, priority 2015, published 2021)

Experiments:
Type in all cases: biochemical
EGFR = EGFR (Homo sapiens, UniProt P00533); test: Inhibition of a panel of kinases, in vitro HotSpot kinase assay: EGFR; details: D-compounds panel data; 1 μM ATP
Method: (§1) The degree of inhibition of a panel of kinases is determined using the in vitro HotSpot kinase assay (purified enzymes, ^33P-ATP, an appropriate substrate and 1 μM ATP).

TEC = biological target: T1, TEC (Homo sapiens, UniProt P42680); test: Inhibition of a panel of kinases, in vitro HotSpot kinase assay: TEC; details: D-compounds panel data; 1 μM ATP
T1 sequence (P42680 1-631): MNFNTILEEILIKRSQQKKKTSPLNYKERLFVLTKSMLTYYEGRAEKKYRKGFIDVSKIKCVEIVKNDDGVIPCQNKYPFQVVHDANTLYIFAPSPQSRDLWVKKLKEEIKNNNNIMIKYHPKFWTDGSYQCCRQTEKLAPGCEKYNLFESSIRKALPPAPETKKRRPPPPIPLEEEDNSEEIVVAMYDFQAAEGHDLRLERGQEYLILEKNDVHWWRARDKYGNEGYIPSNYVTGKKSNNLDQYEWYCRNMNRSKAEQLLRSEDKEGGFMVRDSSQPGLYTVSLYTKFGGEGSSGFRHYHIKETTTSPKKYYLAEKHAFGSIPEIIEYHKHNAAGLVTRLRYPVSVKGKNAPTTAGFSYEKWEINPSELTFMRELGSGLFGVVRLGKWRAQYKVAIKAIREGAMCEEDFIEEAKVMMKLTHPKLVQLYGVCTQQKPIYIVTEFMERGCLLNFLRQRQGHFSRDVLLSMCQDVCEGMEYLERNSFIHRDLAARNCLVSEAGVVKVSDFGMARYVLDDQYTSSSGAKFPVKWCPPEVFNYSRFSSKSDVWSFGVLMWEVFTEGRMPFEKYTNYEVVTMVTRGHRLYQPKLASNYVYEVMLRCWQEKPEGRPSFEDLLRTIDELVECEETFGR
Method: as §1

LCK = LCK (Homo sapiens, UniProt P06239); test: Inhibition of a panel of kinases, in vitro HotSpot kinase assay: LCK; details: D-compounds panel data; 1 μM ATP; read-out: IC50 LCK
Chain of LCK (P06239 whole entry): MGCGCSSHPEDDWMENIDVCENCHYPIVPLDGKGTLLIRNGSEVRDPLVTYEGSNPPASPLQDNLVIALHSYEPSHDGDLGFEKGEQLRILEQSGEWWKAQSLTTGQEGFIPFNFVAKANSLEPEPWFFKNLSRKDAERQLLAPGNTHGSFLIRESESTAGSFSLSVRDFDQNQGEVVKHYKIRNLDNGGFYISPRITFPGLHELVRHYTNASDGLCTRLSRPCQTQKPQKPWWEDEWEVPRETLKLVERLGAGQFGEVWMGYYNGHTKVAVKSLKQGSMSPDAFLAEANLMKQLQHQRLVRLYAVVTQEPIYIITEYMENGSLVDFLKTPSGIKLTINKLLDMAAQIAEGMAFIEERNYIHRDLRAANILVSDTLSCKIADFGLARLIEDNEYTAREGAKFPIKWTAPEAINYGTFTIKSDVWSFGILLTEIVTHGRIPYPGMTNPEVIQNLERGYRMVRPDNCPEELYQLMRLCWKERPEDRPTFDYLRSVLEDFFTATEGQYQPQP

ITK = biological target: T2, ITK (Homo sapiens, UniProt Q08881); test: Inhibition of a panel of kinases, in vitro HotSpot kinase assay: ITK; details: D-compounds panel data; 1 μM ATP
T2 sequence (Q08881 1-620): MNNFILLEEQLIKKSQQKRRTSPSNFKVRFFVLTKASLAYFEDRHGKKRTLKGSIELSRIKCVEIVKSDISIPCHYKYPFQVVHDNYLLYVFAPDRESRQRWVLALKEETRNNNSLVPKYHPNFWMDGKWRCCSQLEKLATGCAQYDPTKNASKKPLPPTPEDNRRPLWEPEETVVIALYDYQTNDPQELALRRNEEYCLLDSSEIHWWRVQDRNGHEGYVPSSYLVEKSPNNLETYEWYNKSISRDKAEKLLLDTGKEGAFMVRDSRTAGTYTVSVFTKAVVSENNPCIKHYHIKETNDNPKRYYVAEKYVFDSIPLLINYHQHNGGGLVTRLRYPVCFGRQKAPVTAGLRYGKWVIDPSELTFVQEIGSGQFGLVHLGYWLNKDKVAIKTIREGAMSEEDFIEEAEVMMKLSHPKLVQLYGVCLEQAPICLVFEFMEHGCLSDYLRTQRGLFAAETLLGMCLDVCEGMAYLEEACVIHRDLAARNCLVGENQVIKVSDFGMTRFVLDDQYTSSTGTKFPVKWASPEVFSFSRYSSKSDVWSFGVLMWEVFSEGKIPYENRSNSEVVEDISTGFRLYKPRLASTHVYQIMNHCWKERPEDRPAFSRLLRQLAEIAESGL
Method: as §1

BTK-WT = biological target: T3, BTK-WT (Homo sapiens, UniProt Q06187); test: Btk in vitro inhibitory activity (one of Method A TR-FRET, Method B electrophoretic mobility shift, Method C radiometric filter binding); details: D-compounds panel data; read-out: IC50 BTK-WT
T3 construct: purified from insect cells as a full-length construct containing an N-terminal 6X-His tag; His6 (N); made in house; host or cells: insect cells (baculovirus Sf21 in Method B)
T3 sequence (Q06187 whole entry): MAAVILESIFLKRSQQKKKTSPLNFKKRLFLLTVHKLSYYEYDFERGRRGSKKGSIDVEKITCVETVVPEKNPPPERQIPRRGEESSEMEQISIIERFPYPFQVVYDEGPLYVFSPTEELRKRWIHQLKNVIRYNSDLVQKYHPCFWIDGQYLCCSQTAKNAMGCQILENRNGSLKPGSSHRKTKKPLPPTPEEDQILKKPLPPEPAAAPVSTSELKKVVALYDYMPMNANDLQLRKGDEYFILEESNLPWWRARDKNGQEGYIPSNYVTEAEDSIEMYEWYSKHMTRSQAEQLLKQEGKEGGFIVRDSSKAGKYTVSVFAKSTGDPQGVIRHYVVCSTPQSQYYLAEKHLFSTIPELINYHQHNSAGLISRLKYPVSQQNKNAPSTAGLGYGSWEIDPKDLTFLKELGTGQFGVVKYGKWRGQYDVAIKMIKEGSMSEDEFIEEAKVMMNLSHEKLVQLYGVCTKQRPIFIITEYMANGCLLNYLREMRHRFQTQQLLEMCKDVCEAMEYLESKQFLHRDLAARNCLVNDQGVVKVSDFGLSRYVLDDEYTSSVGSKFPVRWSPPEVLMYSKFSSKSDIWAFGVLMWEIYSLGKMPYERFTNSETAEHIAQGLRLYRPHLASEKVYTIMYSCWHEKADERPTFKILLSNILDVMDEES

Chain of EGFR (P00533 25-1210): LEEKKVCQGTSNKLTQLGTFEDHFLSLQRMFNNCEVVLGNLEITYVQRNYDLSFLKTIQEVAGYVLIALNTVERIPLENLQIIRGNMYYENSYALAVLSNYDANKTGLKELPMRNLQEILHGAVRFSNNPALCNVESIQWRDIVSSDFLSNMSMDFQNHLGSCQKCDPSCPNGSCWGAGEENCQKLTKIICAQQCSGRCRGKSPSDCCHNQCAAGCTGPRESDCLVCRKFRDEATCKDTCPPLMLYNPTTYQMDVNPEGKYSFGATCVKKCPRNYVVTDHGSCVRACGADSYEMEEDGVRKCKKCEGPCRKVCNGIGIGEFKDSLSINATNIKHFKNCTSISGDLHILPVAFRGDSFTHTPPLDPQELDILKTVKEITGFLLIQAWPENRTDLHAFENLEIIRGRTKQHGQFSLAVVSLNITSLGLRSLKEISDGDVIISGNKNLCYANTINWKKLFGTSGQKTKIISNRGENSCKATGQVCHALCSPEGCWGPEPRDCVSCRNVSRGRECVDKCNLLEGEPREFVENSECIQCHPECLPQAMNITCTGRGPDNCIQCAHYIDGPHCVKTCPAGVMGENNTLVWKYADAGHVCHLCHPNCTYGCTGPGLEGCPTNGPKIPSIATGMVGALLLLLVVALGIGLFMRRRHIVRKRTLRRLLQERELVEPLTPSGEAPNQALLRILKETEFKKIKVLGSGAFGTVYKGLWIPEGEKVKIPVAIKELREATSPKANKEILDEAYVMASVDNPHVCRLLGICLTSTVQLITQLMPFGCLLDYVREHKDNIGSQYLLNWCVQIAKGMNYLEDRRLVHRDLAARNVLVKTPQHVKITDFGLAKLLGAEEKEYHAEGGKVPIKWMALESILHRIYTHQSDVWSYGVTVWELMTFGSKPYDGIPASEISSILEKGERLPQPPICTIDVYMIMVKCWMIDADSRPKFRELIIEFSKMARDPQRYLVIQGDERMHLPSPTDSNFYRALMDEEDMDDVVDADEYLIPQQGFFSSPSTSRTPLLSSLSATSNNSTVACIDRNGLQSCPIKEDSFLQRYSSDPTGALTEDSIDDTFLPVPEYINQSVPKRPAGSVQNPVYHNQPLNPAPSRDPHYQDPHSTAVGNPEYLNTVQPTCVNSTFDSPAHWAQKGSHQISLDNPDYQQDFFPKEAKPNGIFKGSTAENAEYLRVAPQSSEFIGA

| Structure (SMILES) | IC50 (EGFR) [nM] | IC50 (TEC) [nM] | IC50 (LCK) [nM] | IC50 (ITK) [nM] | IC50 (BTK-WT) [nM] |
| --- | --- | --- | --- | --- | --- |
| C[C@@H]1[C@H](NC(=O)c2ccc(C3CC3)cc2)CCCN1c1cnc(C(N)=O)c(Nc2ccc3nccn3c2)n1 [Example D-83, 5-[(2R,3R)-3-(4-cyclopropylbenzamido)-2-methylpiperidin-1-yl]-3-({imidazo[1,2-a]pyridin-6-yl}amino)pyrazine-2-carboxamide] | > 10000 | 10 to 100 | 1000 to 10000 | 1000 to 10000 | 10 to 100 |
| C[C@@H]1[C@H](NC(=O)c2ccc(N(C)C)cn2)CCCN1c1cnc(C(N)=O)c(Nc2cnn(C)c2)n1 [Example D-84, 5-[(2R,3R)-3-[5-(dimethylamino)pyridine-2-amido]-2-methylpiperidin-1-yl]-3-[(1-methyl-1H-pyrazol-4-yl)amino]pyrazine-2-carboxamide] | 1000 to 10000 | ≤ 10 | 100 to 1000 | 100 to 1000 | ≤ 10 |
| C[C@@H]1[C@H](NC(=O)c2cnc(C3CC3)nc2)CCCN1c1cnc(C(N)=O)c(Nc2cnn(C)c2)n1 [Example D-86, 5-[(2R,3R)-3-(2-cyclopropylpyrimidine-5-amido)-2-methylpiperidin-1-yl]-3-[(1-methyl-1H-pyrazol-4-yl)amino]pyrazine-2-carboxamide] | 1000 to 10000 | ≤ 10 | 10 to 100 | 10 to 100 | ≤ 10 |
| C[C@@H]1[C@H](NC(=O)c2ccc(C(C)(C)C#N)cc2)CCCN1c1cnc(C(N)=O)c(Nc2cnn(C)c2)n1 [Example D-88, 5-[(2R,3R)-3-[4-(1-cyano-1-methylethyl)benzamido]-2-methylpiperidin-1-yl]-3-[(1-methyl-1H-pyrazol-4-yl)amino]pyrazine-2-carboxamide] | 1000 to 10000 | 10 to 100 | 100 to 1000 | 100 to 1000 | ≤ 10 |
| C[C@@H]1[C@H](NC(=O)C23CC(C2)C3)CCCN1c1cnc(C(N)=O)c(Nc2cnn(C)c2)n1 [Example D-90, 5-[(2R,3R)-3-{bicyclo[1.1.1]pentane-1-amido}-2-methylpiperidin-1-yl]-3-[(1-methyl-1H-pyrazol-4-yl)amino]pyrazine-2-carboxamide] | 1000 to 10000 | 10 to 100 | 100 to 1000 | 100 to 1000 | 10 to 100 |

More lines, now with the values ahead:

| IC50 (EGFR) [nM] | IC50 (TEC) [nM] | IC50 (LCK) [nM] | IC50 (ITK) [nM] | IC50 (BTK-WT) [nM] | Structure (SMILES) |
| --- | --- | --- | --- | --- | --- |
| 100 to 1000 | 10 to 100 | 10 to 100 | 100 to 1000 | ≤ 10 | C[C@@H]1[C@H](NC(=O)c2ccc(C3CC3)cc2F)CCCN1c1cnc(C(N)=O)c(Nc2ccc(N3CCN(C)CC3)c(F)c2)n1 [Example D-82, 5-[(2R,3R)-3-(4-cyclopropyl-2-fluorobenzamido)-2-methylpiperidin-1-yl]-3-{[3-fluoro-4-(4-methylpiperazin-1-yl)phenyl]amino}pyrazine-2-carboxamide] |
| 100 to 1000 | ≤ 10 | 100 to 1000 | 100 to 1000 | ≤ 10 | C[C@@H]1[C@H](NC(=O)c2ccc(-c3ncccn3)cc2)CCCN1c1cnc(C(N)=O)c(Nc2cnn(C)c2)n1 [Example D-85, 3-[(1-methyl-1H-pyrazol-4-yl)amino]-5-[(2R,3R)-2-methyl-3-[4-(pyrimidin-2-yl)benzamido]piperidin-1-yl]pyrazine-2-carboxamide] |
| 100 to 1000 | 10 to 100 | 100 to 1000 | 100 to 1000 | ≤ 10 | C[C@@H]1[C@H](NC(=O)c2ccc(C(F)(F)F)cn2)CCCN1c1cnc(C(N)=O)c(Nc2cnn(C)c2)n1 [Example D-87, 3-[(1-methyl-1H-pyrazol-4-yl)amino]-5-[(2R,3R)-2-methyl-3-[5-(trifluoromethyl)pyridine-2-amido]piperidin-1-yl]pyrazine-2-carboxamide] |
| 100 to 1000 | 10 to 100 | 10 to 100 | 100 to 1000 | ≤ 10 | C[C@@H]1[C@H](NC(=O)c2ccc(C3CC3)cc2)CCCN1c1cnc(C(N)=O)c(Nc2ccc(OC3CCN(C)CC3)cc2)n1 [Example D-89] |
